# Results taken from PubChem BioAssay (NCI).
# Values joined by “and” are separate entries in the source; they are usually repeats but may differ in a detail not shown here. Equal entries are not always repeated.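 Following 48 hours of exposure in 96-well plates, responses at five concentrations were used to interpolate endpoints linearly. Here, GI50 denotes the concentration required for 50% inhibition of growth. TGI marks complete inhibition of growth.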
# Legend:
# Test in all cases: growth of human tumour cells (NCI), 48 h
# A498 renal = system: A498 renal
# HCC-2998 colon = system: HCC-2998 colon
# HCT-116 colon = system: HCT-116 colon
# KM12 colon = system: KM12 colon
# NCI-H522 lung = system: NCI-H522 lung
# RXF 393 renal = system: RXF 393 renal
# SF-268 CNS = system: SF-268 CNS
# SNB-75 CNS = system: SNB-75 CNS
# SW-620 colon = system: SW-620 colon
# UACC-257 melanoma = system: UACC-257 melanoma
Compound,GI50 (A498 renal),TGI (A498 renal),GI50 (HCC-2998 colon),TGI (HCC-2998 colon),GI50 (HCT-116 colon),TGI (HCT-116 colon),GI50 (KM12 colon),TGI (KM12 colon),GI50 (NCI-H522 lung),TGI (NCI-H522 lung),GI50 (RXF 393 renal),TGI (RXF 393 renal),GI50 (SF-268 CNS),TGI (SF-268 CNS),GI50 (SNB-75 CNS),TGI (SNB-75 CNS),GI50 (SW-620 colon),TGI (SW-620 colon),GI50 (UACC-257 melanoma),TGI (UACC-257 melanoma)
COc1cc2ncnc(Nc3ccc(F)c(Cl)c3)c2cc1NC(=O)/C=C/CN1CCCCC1,0.812 µM and 0.556 µM,4.04 µM and 3.71 µM,1.97 µM and 1.75 µM,4.38 µM and 4.29 µM,1.45 µM and 1.54 µM,3.1 µM and 3.54 µM,2.17 µM and 2.78 µM,4.88 µM and > 9.06 µM,0.0296 µM and 0.00694 µM,1.64 µM and 1.89 µM,0.919 µM and 0.89 µM,2.55 µM and 2.94 µM,1.5 µM and 1.42 µM,3.99 µM and 4.73 µM,1.03 µM and 1.25 µM,6 µM and 6.47 µM,1.84 µM and 1.64 µM,4.42 µM and 3.54 µM,1.66 µM and 1.79 µM,3.39 µM and 3.51 µM
CN1C(=O)N(C)C2C1NN=c1s/c(=C\c3ccc(F)cc3)c(=O)n12 (configuration not stated),1.39 µM,6.77 µM,13.4 µM,> 100 µM,0.795 µM,> 100 µM,1.65 µM,> 100 µM,2.22 µM,> 100 µM,0.785 µM,6 µM,4.62 µM,> 100 µM,1.05 µM,5.22 µM,1.86 µM,> 100 µM,3.02 µM,> 100 µM
COc1ccc(N2C(=O)[C@H]3CC(C)c4c([nH]c5ccccc45)[C@H]3C2=O)cc1 (some centres not stated),,77.7 µM,,69 µM,,30.8 µM,,63.1 µM,,4.24 µM,,9.75 µM,,> 76.2 µM,,12.5 µM,,> 86.8 µM,,> 93.9 µM
CC[PH+](CC)CC.O=COC1OC([S-])C(OC=O)C(OC=O)C1OC=O.[Au+] (configuration not stated),1.86 µM,3.29 µM,1.6 µM,3.03 µM,1.56 µM,3.15 µM,1.61 µM,3.19 µM,1.17 µM,3.97 µM,1.35 µM,2.72 µM,1.17 µM,3.15 µM,0.374 µM,1.77 µM,1.85 µM,3.83 µM,1.19 µM,3.29 µM
COc1ccc2cc(-c3c(-c4ccncc4)nc(-c4ccc(S(C)(=O)=O)cc4C)n3C)ccc2c1,6.31 µM,> 25 µM,12 µM,> 25 µM,7.62 µM,> 25 µM,8.05 µM,> 25 µM,4.45 µM,19 µM,3.99 µM,20.7 µM,11.1 µM,> 25 µM,6.67 µM,> 25 µM,9.68 µM,> 25 µM,7.75 µM,> 25 µM
C/C=C1\NC(=O)[C@H]2CSSCCC=C[C@H](CC(=O)N[C@H](C(C)C)C(=O)N2)OC(=O)[C@H](C(C)C)NC1=O,< 0.01 µM,< 0.01 µM and 0.000402 µM,0.000813 µM,< 0.01 µM and 0.00448 µM,< 0.01 µM,< 0.01 µM and 0.0145 µM and 0.0193 µM,< 0.01 µM,,< 0.01 µM and 0.000105 µM,< 0.01 µM and 0.000166 µM,< 0.01 µM,0.0101 µM and 0.00253 µM,< 0.01 µM,0.0206 µM and 0.0401 µM,< 0.0104 µM,,< 0.01 µM,< 0.01 µM and 0.0195 µM and < 0.0161 µM,< 0.01 µM and 0.000137 µM,
CC[C@]1(O)C(=O)OCc2c1cc1n(c2=O)Cc2cc3c(N)cccc3nc2-1,,> 100 µM,,> 100 µM,,> 100 µM,,> 100 µM,,> 100 µM,,> 100 µM,,> 100 µM,,99.1 µM,,> 100 µM,,> 100 µM
C=CC(=O)Nc1cc2c(Nc3ccc(F)c(Cl)c3)ncnc2cc1OCCCN1CCOCC1,0.357 µM and 0.681 µM,2.51 µM and 5.15 µM,1.82 µM and 2.67 µM,3.46 µM and > 6.08 µM,1.58 µM and 2.35 µM,3 µM and > 5.9 µM,3.18 µM and 5.3 µM,11.9 µM and > 10 µM,0.546 µM and 0.119 µM,2.37 µM and 1.98 µM,1.32 µM and 1.88 µM,2.82 µM and 6.23 µM,1.77 µM and 3.47 µM,5.13 µM and > 10 µM,0.47 µM and 1.06 µM,4.54 µM and > 7.95 µM,1.81 µM and 2.62 µM,3.59 µM and > 6.13 µM,3.42 µM and 9.15 µM,12.8 µM and > 10 µM
NCCCCNc1ccc2c(=O)[nH][nH]c(=O)c2c1,,> 100 µM,,> 100 µM,,> 100 µM,,> 100 µM,,> 100 µM,,> 100 µM,,> 100 µM,,> 100 µM,,> 100 µM,,> 100 µM
C/C=C/C=C/C=C/C=C/C(=O)O,,> 100 µM,,> 100 µM,,> 100 µM,,> 100 µM,,> 100 µM,,> 100 µM,,> 100 µM,,> 100 µM,,> 100 µM,,> 100 µM
O=C1c2cc(Cl)ccc2-c2c1c1ccc([N+](=O)[O-])cc1c(=O)n2CCCBr,24.2 µM,> 100 µM,42.6 µM,> 100 µM,3.48 µM,> 100 µM,20.8 µM,> 100 µM,5.02 µM,43.4 µM,17.6 µM,> 100 µM,1.65 µM,> 100 µM,5.96 µM,64.2 µM,3.78 µM,> 100 µM,41.4 µM,> 100 µM
COc1cc(C(=O)Nc2cc3c(cc2Oc2cc(C)cc(C)c2)C(=O)N(C)[C@@H](CC(=O)N(C)O)C(=O)N3)c(Br)c(OC)c1OC,< 0.00333 µM,0.00573 µM,< 0.00333 µM,< 0.00333 µM,< 0.00333 µM,< 0.00333 µM,< 0.00333 µM,0.0394 µM,< 0.00333 µM,< 0.00333 µM,< 0.00333 µM,0.00609 µM,< 0.00333 µM,0.0067 µM,< 0.00333 µM,< 0.00333 µM,< 0.00333 µM,0.0149 µM,< 0.00333 µM,0.00475 µM
COc1ccc(C2=NN(C=O)C(c3cccc(Nc4ccnc5cc(Cl)ccc45)c3)C2)cc1 (configuration not stated),1.35 µM,9.26 µM,11.7 µM,94.3 µM,1.84 µM,6.02 µM,2.18 µM,37 µM,1.33 µM,12.7 µM,1.66 µM,7.61 µM,4.8 µM,88.7 µM,2.56 µM,38 µM,1.73 µM,13.2 µM,3.06 µM,28.5 µM
CCOC(=O)/C=C/C1=C(c2cccs2)c2ccccc2CC1,36.9 µM,> 100 µM,28.2 µM,64.7 µM,25.4 µM,79.5 µM,25.6 µM,90 µM,24.3 µM,63.6 µM,19.5 µM,41.3 µM,30.2 µM,> 100 µM,25.5 µM,82.5 µM,31.1 µM,> 100 µM,21.2 µM,53.7 µM
